From the RepoRT retention time repository (doi:10.1021/acs.analchem.1c00972)

Assays:
Conditions in all cases: stereoisomer not certain
[1] = RP, Waters ACQUITY UPLC BEH C18, 100 × 1 mm, 1.7 µm, 50 °C, 0.3 mL/min, estimated dead time 0.17 min; A: water + 10 mM ammonium bicarbonate; B: 10% water + 90% methanol + 10 mM ammonium bicarbonate; gradient (min/%B) 0/0 15/100 21/100 22/0 30/0
[2] = RP, Waters ACQUITY UPLC BEH C18, 100 × 1 mm, 1.7 µm, 50 °C, 0.3 mL/min, estimated dead time 0.17 min; A: water + 0.1% formic acid + 20 mM ammonium formate; B: methanol + 0.1% formic acid + 20 mM ammonium formate; gradient (min/%B) 0/0 15/100 21/100 22/0 30/0
[3] = RP, Phenomenex Synergi Polar-RP, 100 × 3 mm, 2.5 µm, 40 °C, 0.4 mL/min, estimated dead time 1.1 min; A: water + 1 mM ammonium fluoride; B: methanol + 1 mM ammonium fluoride; C: acetonitrile; D: 50% isopropanol + 50% acetone; gradient (min/%B/%C/%D) 0/5/0/0 2/5/0/0 8/95/0/0 12/80/15/0 19/25/70/0 19.5/0/25/70 21.5/0/25/70 22.5/0/25/0 23/5/0/0

Row | LC retention time [1] [min] | LC retention time [2] [min] | LC retention time [3] [min] | SMILES
1 | 17.5 | 17.2 | 10.1 | CCCCCCCCCCCCc1ccccc1S(=O)(=O)O [Dodecylbenzenesulfonic acid]
2 | 11.1 | 11.6 | 9.81 | CCOC(=O)c1ccc(O)cc1 [Ethylparaben]
3 | 14.3 | 14.1 | 10.7 | CC(C)C(=O)Nc1ccc([N+](=O)[O-])c(C(F)(F)F)c1 [Flutamide]
4 | 4.67 | 5.2 | 7.62 | NS(=O)(=O)c1cc2c(cc1Cl)NCNS2(=O)=O [Hydrochlorothiazide]
5 | 9.08 | 9.98 | 9.32 | COC(=O)c1ccc(O)cc1 [Methylparaben]
6 | 4.58 | 6.82 | 2.92 | CC(=O)Nc1ccc(O)c(C(=O)O)c1 [N-Acetyl mesalazine]
7 | 7.16 | 7.57 | 2.91 | O=C(O)C(F)(F)C(F)(F)C(F)(F)F [Perfluorobutanoic acid]
8 | 17.7 | 17.7 | 9.93 | O=C(O)C(F)(F)C(F)(F)C(F)(F)C(F)(F)C(F)(F)C(F)(F)C(F)(F)C(F)(F)C(F)(F)C(F)(F)C(F)(F)C(F)(F)C(F)(F)F [Perfluorotetradecanoic acid]
9 | 12.1 | 13.3 | 9.42 | CCC(C)C(=O)OC1CC(O)C=C2C=CC(C)C(CCC(O)CC(O)CC(=O)O)C21 (stereo unspecified) [Pravastatin]
10 | 12.7 | 12.9 | 10.2 | CCCOC(=O)c1ccc(O)cc1 [Propylparaben]
11 | 4.9 | 5.37 | 3.01 | O=C1NS(=O)(=O)c2ccccc21 [Saccharin]
12 | 14.6 | 16.6 | 11.7 | CC(C)(c1cc(Br)c(O)c(Br)c1)c1cc(Br)c(O)c(Br)c1 [Tetrabromobisphenol A]
13 | 14.9 | 17.7 | 10.2 | O=C(Nc1ccc(Cl)c(Cl)c1)c1cc(Cl)cc(Cl)c1O [Tetrachlorosalicylanilide]
14 | 17.4 | 17.2 | 9.97 | CCCCCCCCCCCCCCOS(=O)(=O)O [Tetradecylsulfate]

Row | SMILES | LC retention time [1] [min] | LC retention time [2] [min] | LC retention time [3] [min]
15 | N#Cc1nn(-c2c(Cl)cc(C(F)(F)F)cc2Cl)c(N)c1C(F)(F)F [Fipronil desulfinyl] | 15.4 | 15.1 | 10.9
16 | N#Cc1nn(-c2c(Cl)cc(C(F)(F)F)cc2Cl)c(N)c1SC(F)(F)F [Fipronil sulfide] | 15.8 | 15.4 | 11
17 | N#Cc1nn(-c2c(Cl)cc(C(F)(F)F)cc2Cl)c(N)c1S(=O)(=O)C(F)(F)F [Fipronil sulfone] | 16 | 15.7 | 11.1
18 | O=C(O)C(F)(F)C(F)(F)C(F)(F)C(F)(F)C(F)(F)C(F)(F)C(F)(F)C(F)(F)C(F)(F)F [Perfluorodecanoic acid] | 16.1 | 15.9 | 9.39
19 | O=C(O)C(F)(F)C(F)(F)C(F)(F)C(F)(F)C(F)(F)C(F)(F)F [Perfluoroheptanoic acid] | 13.9 | 13.8 | 11.3
20 | O=C(O)C(F)(F)C(F)(F)C(F)(F)C(F)(F)C(F)(F)F [Perfluorohexanoic acid] | 12.7 | 12.7 | 8.19
21 | NS(=O)(=O)C(F)(F)C(F)(F)C(F)(F)C(F)(F)C(F)(F)C(F)(F)C(F)(F)C(F)(F)F [Perfluorooctanesulfonamide] | 15.7 | 16.5 | 10.6
22 | O=C(O)C(F)(F)C(F)(F)C(F)(F)C(F)(F)C(F)(F)C(F)(F)C(F)(F)F [Perfluorooctanoic acid] | 14.8 | 14.7 | 8.97
